Laboratory results taken from publication PMC9254699 (Biomaterials science, 2021).
Each block holds one compound with its values, some of them ahead of it. No end group written: not given here.

Columns and labels:
off-target kinases = details: cited from earlier work
[1] = deemed target-related; cited from earlier work
ALK5 (TβRI) = details: cited from earlier work
CK1δ = details: cited from earlier work
activin receptor ALK4 = details: cited from earlier work
RIPK2 = details: cited from earlier work
p38MAPK = details: cited from earlier work
activin receptor ALK7 = details: cited from earlier work
TGF-β1 [2] = biological target: T1, TGF-β1 (Homo sapiens, UniProt P01137); details: cited from earlier work
T1 sequence (P01137 279-390 limits assumed, species assumed): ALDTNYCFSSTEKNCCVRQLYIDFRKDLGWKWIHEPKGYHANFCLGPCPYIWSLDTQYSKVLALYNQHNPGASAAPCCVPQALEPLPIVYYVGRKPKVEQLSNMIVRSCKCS

TGF-β1 [3] = biological target: T1, TGF-β1; details: cited from earlier work; remark: listed apart in the source
TGF-β1 [4] = biological target: T1, TGF-β1; experiment: surface plasmon resonance; type: binding; details: for kon: read-out: association rate constant ka; for koff: read-out: dissociation rate constant kd
[5] = system: mouse T-lymphocyte HT-2 cells; experiment: HT-2 T-lymphocyte proliferation assay; type: cell-based
[6] = system: mouse T-lymphocyte HT-2 cells; details: cited from earlier work
[7] = system: human umbilical vein endothelial cells (HUVECs); experiment: HUVEC proliferation assay; type: cell-based; details: HUVEC (Fig. S5)

Compound: Cc1cccc(-c2nn3c(c2-c2ccnc4ccc(C(N)=O)cc24)CCC3)n1 [Galunisertib]
activity against off-target kinases (off-target kinases): strong activity against off-target kinases
cardiac toxicity in preclinical development [1]: cardiac toxicities identified during preclinical development
inhibition of TβRI by galunisertib (ALK5 (TβRI)): small molecule inhibitor of TβRI

Compound: NC(=O)c1ccc(-c2nc(-c3ccc4c(c3)OCO4)c(-c3ccccn3)[nH]2)cc1 [SB-431542]
activity against CK1δ (CK1δ): activity
activity against ALK4 (activin receptor ALK4): activity against activin receptors ALK4
activity against RIPK2 (RIPK2): activity
activity against p38MAPK (p38MAPK): activity
activity against ALK7 (activin receptor ALK7): activity against activin receptors ALK4 and ALK7
inhibition of ALK5 (TβRI) (ALK5 (TβRI)): small molecule inhibitor of ALK5 (TβRI)

Compound: CCCCc1nc(Cl)c(CO)n1Cc1ccc(-c2ccccc2-c2nn[nH]n2)cc1 [losartan, reference compound]
activity against TGF-β1, preclinical anti-fibrotic (TGF-β1 [2]): activity against TGF-β1
direct binding to TGF-β1 or its receptors (TGF-β1 [3]): do not directly bind TGF-β1 or its receptors

Compound: Cc1ccc(C(=O)Nc2ccc(S(=O)(=O)O)c3cc(S(=O)(=O)O)cc(S(=O)(=O)O)c23)cc1NC(=O)c1cccc(NC(=O)Nc2cccc(C(=O)Nc3cc(C(=O)Nc4ccc(S(=O)(=O)O)c5cc(S(=O)(=O)O)cc(S(=O)(=O)O)c45)ccc3C)c2)c1 [suramin, reference compound]
activity against TGF-β1, preclinical anti-fibrotic (TGF-β1 [2]): activity against TGF-β1
direct binding to TGF-β1 or its receptors (TGF-β1 [3]): do not directly bind TGF-β1 or its receptors

kon (TGF-β1 [4]): 192000 M⁻¹ s⁻¹
koff (TGF-β1 [4]): 0.0199 s⁻¹
Compound: CIAEIDLIPRDRPF [RIPΔ]

kon (TGF-β1 [4]): 140000 M⁻¹ s⁻¹
koff (TGF-β1 [4]): 0.00836 s⁻¹
Compound: CIAEIDLIPRDRPFV [RIP]

kon (TGF-β1 [4]): 68500 M⁻¹ s⁻¹
koff (TGF-β1 [4]): 0.0352 s⁻¹
Compound: CLIDFRIPADREVPI [Scrambled RIP]

Compound: CPQLGKFGDVRF [RIIP-1]
effect on HT-2 proliferation (fluorescence) vs own scrambled control ([5]; 10 μM soluble peptide, 0.1 ng/mL TGF-β1 (Fig. 2b)): not statistically different between RIIP-1 and its scrambled control

Compound: TGF-β1: most abundant TGF-β isoform in adult tissues and platelets
published IC50 value of TGF-β1 in HT-2 assay [6]: 0.04 to 0.2 ng/mL
TGF-β1 concentration of highest inhibition of HUVEC proliferation [7]: 41 pg/mL
TGF-β1 concentration of highest inhibition of HUVEC proliferation (molar) [7]: 3.2 pM
TGF-β1 concentration range suppressing HUVEC proliferation [7]: 10 to 1000 ng/mL
IC50 of TGF-β1 in the HT-2 proliferation assay ([5]; IL-4 dependent proliferation, fluorescence-based cell viability assay): 0.05 ng/mL
IC50 ([5]; read-out: IC50 of TGF-β1 in the HT-2 proliferation assay (molar), IL-4 dependent proliferation, fluorescence-based cell viability assay): 3.9 pM
inhibition of IL-4 dependent HT-2 proliferation by TGF-β1 ([5]; soluble TGF-β1, fluorescence-based cell viability assay (Fig. 2a)): inhibited IL-4 dependent proliferation in a dose dependent manner

Compound: relaxin
activity against TGF-β1, preclinical anti-fibrotic (TGF-β1 [2]): activity against TGF-β1
direct binding to TGF-β1 or its receptors (TGF-β1 [3]): do not directly bind TGF-β1 or its receptors
